One experiment concerns primary astrocytes. The experiment can be described thus: High throughput screening for lactate secretion: acidification of extracellular medium (SNARF5). In kind it is cell-based, mouse. More on the design: key to Score / HTS Score (lactate) / HTS Score (SNARF5) / Score_SNARF: fraction of positive control activity (positive control = 100%). Particulars: for Score_SNARF: primary screening confirmation (SNARF5); for Score / HTS Score (SNARF5) / Emax at 10 µM: 10 uM, 90 min; for Emax at 10 µM: Mus musculus, Astrocyte, 1.5 h. In outline: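 Mouse cortical astrocytes (DIV17) stimulated 90 min at 10 uM compound (1% DMSO) in low-bicarbonate DMEM, 5 mM glucose, with SNARF-5F; extracellular acidification read as 630/580 nm emission ratio (exc 480 nm). Duplicates; score as % of CCCP 2 uM control, hits >3× summed SD above DMSO.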

In experiment [1] the test system is astrocytes. The experiment can be described thus: Production of H2O2 (mitochondrial activity). The experiment is classed as cell-based. Particulars: Mus musculus, Astrocyte, 1.5 h; CDC54K hits; 0-200 uM, 90 min. The method, then:
(§1) Primary cultures of cerebrocortical astrocytes were obtained from 1-2-day-old OF1 mouse pups (Charles River Laboratories). Briefly, cortices were isolated and minced in small pieces under a dissecting microscope. The cells were incubated for 30 min at 37° C. in a solution containing 20 U/ml of papain enzyme (Worthington Biochemical), L-cysteine 1 mM (Sigma), and 10 kU/ml DNase I (Worthington Biochemical) for an enzymatic dissociation. Papain activity was stopped by the addition of fetal calf serum (FCS) to the solution, and a single-cell suspension was then obtained by mechanical dissociation, which consisted in cells trituration in a DMEM (D7777, Sigma-Aldrich) medium (supplemented with 44 mm NaHCO3, and 10 ml/L antibiotic/antimycotic solution) containing 10% FCS. The cells were seeded at an average density of 6×10^4 cells/cm^2 in poly-D-lysine-coated 96, 12 or 6-well culture plates, depending on their use, and incubated at 37° C. in a humidified atmosphere containing 5% CO2/95% air. Culture medium was renewed twice per week. Cells were stimulated and harvested between DIV14 and DIV17, when confluence and cell growth were optimal.
Hydrogene peroxide (H2O2) released in the supernatant is detected enzymatically with Amplex red (Zhou, Diwu et al. 1997). Oxidation of Amplex red is catalysed by the horseradish peroxidase in presence of H2O2 into highly fluorescent resorufin. Fluorescence measure is read at 545 nm extinction, 590 nm emission. The amount of H2O2 was expressed relatively to the proteins content extracted from the cells in culture. […]
Mitochondrial respiration in astrocytes was measured through production of H2O2 at 90 min after stimulation with CDC54K hits (ranging from 0 to 200 uM).

The subject of experiment [2] is astrocytes. The experiment in a line: Extracellular lactate quantification. Particulars: for Score_LACTATE: Appendix I, secondary screening, dosage of extracellular lactate; for EC50: Mus musculus, Astrocyte. In kind it is cell-based, mouse. Summed up:
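Primary cortical astrocytes from 1–2-day-old OF1 mouse pups, used at DIV14–17, stimulated 90 min at 37 °C in D5030 with 5 mM glucose, compounds 0–100 μM. Extracellular L-lactate measured enzymatically (LDH/NAD, pH 10, 1 h 37 °C) by NADH fluorescence (ex 340/em 450) against L-lactate standard curve.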

The test system of experiment [3] is astrocytes. The experiment can be described thus: MTT viability assay. In kind it is cell-based. Particulars: Mus musculus, Astrocyte; CDC54K hits; cellular toxicity, 0-200 uM. The protocol:
as §1
For cell toxicity determination, astrocytes in 96-well plates were stimulated 24 h (37° C. 5% CO2/95% air) with a gradient ranging from 0.1 to 200 μM of tested compounds. After stimulation, 5 mg/ml thiazol blue tetrazolium bromide (MTT, Sigma-Aldrich) in warm D5030 complete medium was added to each well, and cells were incubated for 4 h at 37° C. (5% CO2). The medium was then removed by aspiration, and the reaction was stopped by the addition of 50 μl DMSO per well.
The amount of reduced MTT (formazan) solubilized in DMSO was then determined spectrophotometrically using absorbance at 570 nm (Safire 2; Tecan).
MTT cellular viability assay was performed on astrocytes exposed to molecules from the Prestwick library (Prestwick hits; concentrations ranging from 0 uM to 200 uM).
MTT cellular viability assay was performed on astrocytes exposed to CDC54K hits (concentrations ranging from 0 uM to 200 uM).

[4] abbreviates: Appendix I, primary screening, relative to positive control.
Where [5] appears, read: CDC54K hits, relative to positive control CCCP 2 uM.
Where [6] appears, read: 1.5 h, CDC54K hits, 0-100 uM, 90 min, read-out: Lactate EC50.
Setting [7] is: Appendix I, primary screening, relative to positive control, read-out: Score.
[8] abbreviates: CDC54K hits, relative to positive control CCCP 2 uM, read-out: HTS Score (SNARF5).

The results in this text go back to patent US12274703B2, “Compositions and methods of treatment for neurological disorders comprising a dementia” (Gliapharm SA, priority 2017, dated 2025).

Like-named read-outs stand apart in the source and are kept apart here. A value given as a limit tells only on which side of the number the result lay.

With `Cc1ccccc1NC(=O)C1CCCN(c2ncnc3oc(C)c(C)c23)C1` (stereo not shown) [F228-0422], in the experiment on primary astrocytes (Appendix I), the Score_SNARF came out at 0.7702. Also, in the experiment on primary astrocytes (setting [4]), the Score was 1.057. Besides, the “HTS Score (SNARF5)” value with primary astrocytes (setting [5]) was determined as 1.058. Further, the IC50 in the experiment on astrocytes [1] and with astrocytes [3] was > 200 µM throughout. In the experiment on astrocytes [2], this molecule registered a Score_LACTATE of 0.6364. Also, in the experiment with astrocytes [2] (setting [6]), the concentration for a half-maximal effect (EC50) amounted to 0.5 µM.

Regarding `COc1ccccc1[N+]1=C2CCCCCN2C(O)(c2ccc(C)cc2)C1` (stereo not shown) [K404-0834], the Emax at 10 µM in the experiment on primary astrocytes (setting [7]) and in the experiment with primary astrocytes (setting [8]) was 112% in each case. Besides, the IC50 with astrocytes [1] was > 200 µM; in the experiment on astrocytes [3], 150 µM. The EC50 in the experiment on astrocytes [2] (setting [6]) stood at 1.8 µM.

`CCc1nc(-c2csc(S(=O)(=O)NCc3ccc4c(c3)OCO4)c2)no1` [L287-0468] returned a Score_SNARF in the experiment on primary astrocytes (Appendix I) of 0.6592. This molecule yielded a Score with primary astrocytes (setting [4]) of 0.5971. The “HTS Score (SNARF5)” value in the experiment on primary astrocytes (setting [5]) was 0.597. Moreover, the IC50 with astrocytes [1] and in the experiment on astrocytes [3] was > 200 µM each time. Moreover, in the experiment on astrocytes [2], the Score_LACTATE was 0.6179. Besides, the EC50 in the experiment on astrocytes [2] (setting [6]) was 7.9 µM.

In turn, `CCn1nccc1-c1csc(S(=O)(=O)Nc2ccc(Cl)cc2F)c1` [L924-1031] registered a Score_SNARF in the experiment with primary astrocytes (Appendix I) of 0.8713. The same molecule gave a Score in the experiment with primary astrocytes (setting [4]) of 0.9286. Also, in the experiment with primary astrocytes (setting [5]), the “HTS Score (SNARF5)” value was found to be 0.929. The IC50 in the experiment on astrocytes [1] is 48.6 µM; in the experiment with astrocytes [3], > 200 µM. Also, the Score_LACTATE with astrocytes [2] is given as 1.632. In the experiment with astrocytes [2] (setting [6]), the EC50 amounted to 25.3 µM.

Take `CC(=O)N1CCc2sc(S(=O)(=O)N3CCN(c4ccccc4C)CC3)cc2C1` [P025-0159]: in the experiment with primary astrocytes (Appendix I), the Score_SNARF was found to be 0.8007. The molecule further had a Score in the experiment on primary astrocytes (setting [4]) of 0.9535. The “HTS Score (SNARF5)” value with primary astrocytes (setting [5]) is 0.953. For the same molecule, the IC50 in the experiment on astrocytes [1] and with astrocytes [3] was > 200 µM throughout. The same molecule gave a Score_LACTATE in the experiment on astrocytes [2] of 0.9232. In the experiment with astrocytes [2] (setting [6]), the EC50 was determined as 8.7 µM.

Regarding `COc1ccc(Nc2nc(N3CCOCC3)c3ccccc3n2)cc1.Cl` [T0508-5190], the Emax at 10 µM in the experiment on primary astrocytes (setting [7]) and in the experiment with primary astrocytes (setting [8]) was 45.9% in each case. Moreover, the results for the IC50 with astrocytes [1] and in the experiment on astrocytes [3] were 185 µM and 75 µM, respectively. In addition, the EC50 with astrocytes [2] (setting [6]) is 3.1 µM.

As for `c1ccc2c(c1)CCN(c1ncnc3sccc13)C2` [T0517-8250], the Emax at 10 µM in the experiment on primary astrocytes (setting [7]) and in the experiment on primary astrocytes (setting [8]) was 95.7% in each case. Also, the IC50 was > 200 µM in the experiment with astrocytes [1] and 140 µM in the experiment with astrocytes [3]. The EC50 in the experiment on astrocytes [2] (setting [6]) came out at 3 µM.

Consider `N#Cc1ccc(C(=O)N2CCC(Nc3ncnc4c3CCC4)C2)cc1` (stereo not shown) [T636-2387], for which, in the experiment with primary astrocytes (setting [5]), the “HTS Score (SNARF5)” value is on record as 0.445. In addition, the Emax at 10 µM with primary astrocytes (setting [7]) came to 44.5%. Moreover, the IC50 in the experiment with astrocytes [1] and in the experiment on astrocytes [3] was > 200 µM in each case. For the same molecule, the “Score Lact.” value in the experiment on astrocytes [2] (Appendix II) is reported as 0.30. For the same molecule, the EC50 was found to be 11.5 µM in the experiment with astrocytes [2] (setting [6]) and 6.83 µM with astrocytes [2] (Appendix II, lactate secretion, read-out: EC50).

In the experiment with primary astrocytes (Appendix I), `COc1cc(C)c(Cl)cc1S(=O)(=O)NCc1ccncc1` [T5580243] registered a Score_SNARF of 0.8565. The molecule further showed a Score with primary astrocytes (setting [4]) of 0.8528. The “HTS Score (SNARF5)” value in the experiment on primary astrocytes (setting [5]) came to 0.853. The IC50 in the experiment with astrocytes [1] and in the experiment with astrocytes [3] was > 200 µM throughout. The Score_LACTATE in the experiment on astrocytes [2] was 0.7229. For the same molecule, in the experiment on astrocytes [2] (setting [6]), the EC50 worked out at 11 µM.

`O=C1CCCN1c1ccc(S(=O)(=O)Nc2cccc(/C=C/c3ccccn3)c2)cc1` [T5644989] showed a Score_SNARF with primary astrocytes (Appendix I) of 0.8385. Further, the Score in the experiment on primary astrocytes (setting [4]) is given as 0.6796. In addition, in the experiment with primary astrocytes (setting [5]), the “HTS Score (SNARF5)” value is 0.68. Besides, the IC50 with astrocytes [1] and in the experiment on astrocytes [3] was > 200 µM each time. The molecule also yielded a Score_LACTATE in the experiment on astrocytes [2] of 0.7859. Further, the EC50 with astrocytes [2] (setting [6]) was determined as 7.9 µM.

As for `O=S(=O)(Nc1cc(F)cc(F)c1)c1ccc2ccccc2c1` [T5884038], the Emax at 10 µM in the experiment on primary astrocytes (setting [7]) and with primary astrocytes (setting [8]) was 72.1% throughout. In addition, the figures for the IC50 in the experiment on astrocytes [1] and in the experiment with astrocytes [3] were > 200 µM and 70.5 µM, respectively. For the same molecule, the EC50 in the experiment with astrocytes [2] (setting [6]) was 12.2 µM.

In the case of `Cc1nc2ccc(NS(=O)(=O)c3cccc(F)c3)cc2s1` [T6937001], in the experiment with primary astrocytes (Appendix I), the Score_SNARF came to 0.8557. This molecule also yielded a Score with primary astrocytes (setting [4]) of 0.8094. The “HTS Score (SNARF5)” value in the experiment on primary astrocytes (setting [5]) is recorded as 0.809. For the same molecule, the IC50 in the experiment with astrocytes [1] and in the experiment on astrocytes [3] was > 200 µM in each case. In the experiment with astrocytes [2], the Score_LACTATE is 0.9088. For the same molecule, the EC50 in the experiment with astrocytes [2] (setting [6]) came to 11.5 µM.

A word on the IC50: it is the point on the concentration scale where inhibition reaches its midpoint. The term EC50 denotes the concentration that produces a half-maximal response.
